Source: ChEMBL document CHEMBL4390688, “Accelerating the discovery of DGAT1 inhibitors through the application of parallel medicinal chemistry (PMC)” (Bioorg Med Chem Lett, 2019)

Tests used:
[1] = biological target: T1, Diacylglycerol O-acyltransferase 1 (Homo sapiens, UniProt O75907)
T1 sequence (O75907 whole entry): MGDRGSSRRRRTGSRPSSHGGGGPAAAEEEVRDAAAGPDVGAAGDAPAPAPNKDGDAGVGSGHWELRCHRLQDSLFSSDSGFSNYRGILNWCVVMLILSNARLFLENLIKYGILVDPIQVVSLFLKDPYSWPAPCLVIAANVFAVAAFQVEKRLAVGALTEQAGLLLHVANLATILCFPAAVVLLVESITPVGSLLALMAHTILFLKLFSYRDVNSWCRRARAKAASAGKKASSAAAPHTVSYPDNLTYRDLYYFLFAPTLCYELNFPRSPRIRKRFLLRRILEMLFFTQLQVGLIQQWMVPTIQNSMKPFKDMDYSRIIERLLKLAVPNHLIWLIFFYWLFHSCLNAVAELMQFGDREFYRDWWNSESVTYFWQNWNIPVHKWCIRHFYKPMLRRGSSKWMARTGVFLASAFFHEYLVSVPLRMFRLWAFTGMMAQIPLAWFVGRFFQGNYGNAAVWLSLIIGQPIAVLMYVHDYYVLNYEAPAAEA
Description: Inhibition of human DGAT1

[2] = biological target: Voltage-gated inwardly rectifying potassium channel KCNH2 (Homo sapiens, UniProt Q12809); assay: Inhibition of human ERG
Voltage-gated inwardly rectifying potassium channel KCNH2, sequence (Q12809 whole entry): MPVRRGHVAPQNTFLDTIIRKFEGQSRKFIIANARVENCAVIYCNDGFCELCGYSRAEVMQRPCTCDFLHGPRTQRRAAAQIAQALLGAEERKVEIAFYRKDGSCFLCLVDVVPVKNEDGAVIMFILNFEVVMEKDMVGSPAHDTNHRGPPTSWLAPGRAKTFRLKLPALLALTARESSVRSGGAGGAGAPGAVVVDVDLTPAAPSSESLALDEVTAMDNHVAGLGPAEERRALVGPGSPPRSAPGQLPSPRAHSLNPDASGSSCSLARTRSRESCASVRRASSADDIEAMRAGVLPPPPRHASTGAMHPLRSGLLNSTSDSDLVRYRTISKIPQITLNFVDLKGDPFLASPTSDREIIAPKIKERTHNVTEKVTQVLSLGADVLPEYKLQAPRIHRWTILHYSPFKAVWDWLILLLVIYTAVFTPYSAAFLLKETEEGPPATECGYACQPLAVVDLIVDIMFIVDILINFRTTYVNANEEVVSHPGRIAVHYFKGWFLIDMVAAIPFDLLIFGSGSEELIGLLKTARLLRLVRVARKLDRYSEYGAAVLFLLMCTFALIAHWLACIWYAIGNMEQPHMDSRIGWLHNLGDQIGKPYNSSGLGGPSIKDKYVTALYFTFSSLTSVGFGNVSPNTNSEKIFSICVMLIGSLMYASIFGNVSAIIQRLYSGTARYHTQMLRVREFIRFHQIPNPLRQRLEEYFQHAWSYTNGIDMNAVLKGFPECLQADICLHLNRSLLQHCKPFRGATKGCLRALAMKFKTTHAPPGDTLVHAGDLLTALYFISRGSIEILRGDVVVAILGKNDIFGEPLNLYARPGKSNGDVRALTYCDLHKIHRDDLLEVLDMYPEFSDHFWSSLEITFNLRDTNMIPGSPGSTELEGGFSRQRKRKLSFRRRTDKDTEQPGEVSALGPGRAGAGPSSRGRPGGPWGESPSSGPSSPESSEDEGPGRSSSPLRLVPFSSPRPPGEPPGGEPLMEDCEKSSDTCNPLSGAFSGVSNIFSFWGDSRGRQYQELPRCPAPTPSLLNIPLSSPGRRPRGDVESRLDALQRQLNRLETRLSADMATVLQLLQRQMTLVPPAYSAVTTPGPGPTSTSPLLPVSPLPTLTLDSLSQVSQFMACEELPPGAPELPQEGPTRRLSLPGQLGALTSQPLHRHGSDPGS

[3] = biological target: T2, Sterol O-acyltransferase 1 (Homo sapiens, UniProt P35610)
T2 sequence (P35610 whole entry): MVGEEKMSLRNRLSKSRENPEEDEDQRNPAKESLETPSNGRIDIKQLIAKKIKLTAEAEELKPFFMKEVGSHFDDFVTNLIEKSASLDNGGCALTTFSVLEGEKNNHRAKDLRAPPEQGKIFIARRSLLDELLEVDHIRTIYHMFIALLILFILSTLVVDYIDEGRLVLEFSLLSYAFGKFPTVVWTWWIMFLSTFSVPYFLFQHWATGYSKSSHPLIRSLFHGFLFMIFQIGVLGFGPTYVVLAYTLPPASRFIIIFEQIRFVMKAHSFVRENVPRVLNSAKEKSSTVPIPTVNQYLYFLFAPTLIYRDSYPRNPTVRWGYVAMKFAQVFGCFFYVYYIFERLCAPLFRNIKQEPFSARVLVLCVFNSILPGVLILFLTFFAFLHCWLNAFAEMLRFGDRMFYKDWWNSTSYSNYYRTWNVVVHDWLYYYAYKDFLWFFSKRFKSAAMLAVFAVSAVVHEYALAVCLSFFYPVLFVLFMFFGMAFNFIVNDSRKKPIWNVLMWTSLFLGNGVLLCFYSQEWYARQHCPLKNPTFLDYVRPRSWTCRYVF
Description: Inhibition of human ACAT1

[4] = biological target: T3, Diacylglycerol O-acyltransferase 1 (Mus musculus, UniProt Q9Z2A7)
T3 sequence (Q9Z2A7 whole entry): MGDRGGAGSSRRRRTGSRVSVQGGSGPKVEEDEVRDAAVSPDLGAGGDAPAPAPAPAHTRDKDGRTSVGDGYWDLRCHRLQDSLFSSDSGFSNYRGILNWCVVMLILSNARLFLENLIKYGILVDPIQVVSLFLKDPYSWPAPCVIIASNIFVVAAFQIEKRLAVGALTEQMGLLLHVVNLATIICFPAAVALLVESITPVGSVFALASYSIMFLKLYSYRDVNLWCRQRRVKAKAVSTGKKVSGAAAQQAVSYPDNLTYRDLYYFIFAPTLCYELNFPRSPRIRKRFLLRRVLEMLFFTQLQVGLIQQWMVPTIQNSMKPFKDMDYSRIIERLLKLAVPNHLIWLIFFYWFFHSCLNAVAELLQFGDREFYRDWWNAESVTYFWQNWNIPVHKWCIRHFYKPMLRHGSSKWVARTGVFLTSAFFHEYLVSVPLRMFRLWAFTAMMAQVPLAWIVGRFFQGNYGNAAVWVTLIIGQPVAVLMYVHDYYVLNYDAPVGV
Description: Inhibition of mouse DGAT1

Mus musculus = assay: Reduction in lipid excursion in mouse at 10 mg/kg, po QD measured at 18 hrs post dose by lipid tolerance test relative to control; type: functional; set-up: scale not given: the % may be the effect or the level left
[5] = Distribution coefficient, log D of compound; type: physicochemical; details: octanol/water

| Compound | IC50 [1] [nM] | Ki [2] [nM] | IC50 [3] [nM] | IC50 [4] [nM] | Activity (Mus musculus) [%] | logD [5] |
| --- | --- | --- | --- | --- | --- | --- |
| FC(F)(F)c1ccc2[nH]c(-c3ccc(-c4cccnc4)cc3)nc2c1 | 127 | 1430 |  |  |  |  |
| O=C(O)C1(COc2ccc(-c3ccc(-c4nc5cc(Cl)ccc5[nH]4)cn3)cn2)CC1 | 3.1 | 10800 | 1650 | 11 | 50 | 1.35 |
| O=C(O)C[C@H]1CC[C@H](OC2CCN(c3ccc(-c4nc5cc(Cl)cnc5[nH]4)cn3)CC2)CC1 |  |  | > 10000 | 271 |  |  |
| FC(F)(F)c1ccc2[nH]c(-c3ccc(-c4ccccc4)cc3)nc2c1 | 1330 | 2310 |  |  |  |  |
| O=C(O)C[C@H]1CC[C@H](c2ccc(-c3ccc(-c4nc5cc(C(F)(F)F)ccc5[nH]4)cc3)cc2)CC1 |  |  |  | 1.8 |  | 2.31 |
| O=C(O)C[C@H]1CC[C@@H](Oc2ccc(-c3ccc(-c4nc5cc(C(F)(F)F)ccc5[nH]4)cn3)cn2)CC1 |  | 4100 |  | 1.5 |  |  |
| Cc1ccc2[nH]c(-c3ccc(N4CCC(O[C@H]5CC[C@H](CC(=O)O)CC5)CC4)nc3)nc2n1 |  |  |  | 1910 |  |  |
| O=C(O)C[C@H]1CC[C@@H](Oc2ccc(-c3ccc(-c4nc5cc(Cl)ccc5[nH]4)cn3)cn2)CC1 |  | 3000 |  | 1.7 |  |  |
| O=C(O)C[C@H]1CC[C@@H](Oc2ccc(-c3ccc(-c4nc5cc(Cl)cnc5[nH]4)cn3)cn2)CC1 | 3.2 | 8600 | 1630 | 5.9 |  |  |
| N#Cc1ccc2[nH]c(-c3ccc(N4CCC(O[C@H]5CC[C@H](CC(=O)O)CC5)CC4)nc3)nc2c1 |  | 3000 | > 10000 | 528 |  |  |
| CC1(C(=O)O)CCCN(c2ccc(-c3ccc(-c4nc5cc(Cl)ccc5[nH]4)cn3)cn2)C1 (racemic) | 4.5 | 1980 | > 2000 | 36 | 63 | 1.43 |
| O=C(O)C1CCC(Nc2ccc(-c3ccc(-c4nc5cc(Cl)ccc5[nH]4)cn3)cn2)CC1 (racemic) | 5.4 | 3750 | > 2000 | 48 | 70 | 1.37 |
| COc1ccc2[nH]c(-c3ccc(N4CCC(O[C@H]5CC[C@H](CC(=O)O)CC5)CC4)nc3)nc2n1 |  | 20500 | > 10000 | 78 |  |  |
| O=C(O)[C@H]1CC[C@H](Oc2ccc(-c3ccc(-c4nc5cc(Cl)ccc5[nH]4)cn3)cn2)CC1 | 2.6 | 3520 | 1970 | 6.3 | 83 | 1.39 |
| O=C(O)C1CCCCC1Nc1ccc(-c2ccc(-c3nc4cc(Cl)ccc4[nH]3)cn2)cn1 (racemic) | 4.2 | 3560 | > 10000 | 21 | 0 | 1.51 |
| O=C(O)CC1CCN(c2ccc(-c3ccc(-c4nc5cc(Cl)ccc5[nH]4)cn3)cn2)CC1 | 10.2 | 5220 | > 2000 | 108 | 62 | 1.48 |

| Compound | IC50 [1] [nM] | Ki [2] [nM] | IC50 [3] [nM] | IC50 [4] [nM] | Activity (Mus musculus) [%] | logD [5] |
| --- | --- | --- | --- | --- | --- | --- |
| O=C(O)C[C@H]1CC[C@@H](Oc2ccc(-c3ccc(-c4nc5cc(F)c(F)cc5[nH]4)cn3)cn2)CC1 | 1.7 | 19000 | > 2000 | 2.6 |  |  |
| CN1CCN(c2ccc(-c3ccc(-c4nc5cc(C(F)(F)F)ccc5[nH]4)cc3)cn2)CC1 | 70 | 426 | 2720 |  |  |  |
| O=C(O)C[C@H]1CC[C@@H](Oc2ccc(-c3ccc(-c4nc5c(F)cc(F)cc5[nH]4)cn3)cn2)CC1 |  | 3800 |  | 2.3 |  |  |
| O=C(O)[C@H]1CC[C@@H](Oc2ccc(-c3ccc(-c4nc5cc(Cl)ccc5[nH]4)cn3)cn2)CC1 | 1.5 | 5390 | > 2000 | 2.8 | 144 |  |
| O=C(O)C1CC1COc1ccc(-c2ccc(-c3nc4cc(Cl)ccc4[nH]3)cn2)cn1 (racemic) | 3.6 | 19000 | > 2000 | 30 | 91 | 1.19 |
| N#Cc1ccc(-c2ccc(-c3nc4cc(C(F)(F)F)ccc4[nH]3)cc2)cn1 | 38 | > 60000 | > 10000 |  |  |  |
| O=C(O)C1CC(Nc2ccc(-c3ccc(-c4nc5cc(Cl)ccc5[nH]4)cn3)cn2)C1 (racemic) | 22 | > 60000 | > 2000 | 247 |  | 1.29 |
| O=C(O)c1ccc(CNc2ccc(-c3ccc(-c4nc5cc(Cl)ccc5[nH]4)cn3)cn2)cc1 | 9.6 | 11900 | > 10000 | 84 |  | 1.3 |
| FC(F)(F)c1ccc2[nH]c(-c3ccc(-c4ccc(N5CCOCC5)nc4)cc3)nc2c1 | 65 | 13000 | 1320 |  |  |  |
| N#Cc1ccc(-c2ccc(-c3nc4cc(C(F)(F)F)ccc4[nH]3)cc2)cc1 | 98 | 616 | 1400 |  |  |  |
| Oc1ccc(-c2ccc(-c3nc4cc(C(F)(F)F)ccc4[nH]3)cc2)cc1 | 451 | 1640 |  |  |  |  |
| O=C(O)C1CC(Oc2ccc(-c3ccc(-c4nc5cc(Cl)ccc5[nH]4)cn3)cn2)C1 (racemic) | 3.5 | 20200 | > 2000 | 24 | 54 | 1.16 |
| O=C(O)C[C@H]1CC[C@H](c2ccc(-c3ccc(-c4nc5cc(Cl)ccc5[nH]4)cc3)cc2)CC1 |  |  |  |  |  | 2.08 |
| CC(C)(COc1ccc(-c2ccc(-c3nc4cc(Cl)ccc4[nH]3)cn2)cn1)C(=O)O | 0.7 | 8140 | 971 | 1.4 |  | 1.44 |
| CN1CCN(c2ccc(-c3ccc(-c4nc5cc(C(F)(F)F)ccc5[nH]4)cc3)cc2)CC1 | 66 | 820 | 1350 |  |  |  |
| O=C(O)C[C@H]1CC[C@H](OC2CCN(c3ccc(-c4nc5cc(C(F)(F)F)cnc5[nH]4)cn3)CC2)CC1 | 23.6 | 12000 | > 10000 | 125 |  |  |
